ChEMBL document CHEMBL4190384, “Design, synthesis and biological evaluation of substituted (+)-SG-1 derivatives as novel anti-HIV agents” (Bioorg Med Chem Lett, 2018)
pIC50: −log10 of the molar value.

Tests used:
[1] = test system: Human immunodeficiency virus 1; experiment: (§1) Antiviral activity against HIV1 virions derived from HIV/[…] or HIV/HA virions infected 293T cells using human A549 cells as target cells assessed as inhibition of viral replication using compound pre-mixed virions followed by incubation with target cells for 24 hrs by luciferase reporter gene assay based defective HIV1 pseudoviral assay; type: functional, organism-based; details: Human immunodeficiency virus 1, 24 h
A549 = experiment: Cytotoxicity against human A549 cells at 10 uM after 48 hrs by CellTiter 96 AQueous one solution cell proliferation assay; type: cell-based; details: a549, 48 h
[2] = test system: Human immunodeficiency virus 1; experiment: as §1, with “HIV1 virions containing reverse transcriptase K103N mutant derived from” for “HIV1 virions derived from”; type: functional, organism-based; details: Human immunodeficiency virus 1, 24 h
[3] = test system: Human immunodeficiency virus 1; experiment: (§2) Resistance index, ratio of IC50 for antiviral activity against HIV1 virions containing reverse transcriptase K103N mutant derived from HIV/[…] or HIV/HA virions infected 293T cells using human A549 cells as target cells to IC50 for antiviral activity against wild type HIV1 virions derived from HIV/[…] or HIV/HA virions infected 293T cells using human A549 cells as target cells; type: functional
[4] = test system: Human immunodeficiency virus 1; experiment: as §1, with “HIV1 virions containing reverse transcriptase Y181C mutant derived from” for “HIV1 virions derived from”; type: functional, organism-based; details: Human immunodeficiency virus 1, 24 h
[5] = test system: Human immunodeficiency virus 1; experiment: as §2, with “Y181C” for “K103N”; type: functional
[6] = test system: Human immunodeficiency virus 1; experiment: as §1, with “HIV1 virions containing reverse transcriptase E138K/M184V mutant derived from” for “HIV1 virions derived from”; type: functional, organism-based; details: Human immunodeficiency virus 1, 24 h
[7] = test system: Human immunodeficiency virus 1; experiment: as §2, with “E138K/M184V” for “K103N”; type: functional
[8] = test system: Human immunodeficiency virus 1; experiment: Antiviral activity against human HIV1 by VSV-G/HIV1 infection assay; type: functional, organism-based

COc1cc([C@H]2c3c(cc(OC)c(OC)c3OC)C[C@H](C)[C@@H]2C)cc(OC)c1OC
pIC50 [1]: 6.16 | Activity (A549): Non-Toxic | pIC50 [2]: 6.12 | Ratio IC50 [3]: 1.1 | pIC50 [4]: < 5.00 | Ratio IC50 [5]: >14.5 | pIC50 [6]: 5.23 | Ratio IC50 [7]: 8.6

Cc1ccnc2c1NC(=O)c1cccnc1N2C1CC1 [NEVIRAPINE]
pIC50 [1]: 7.89 | pIC50 [2]: 6.04 | Ratio IC50 [3]: 70 | pIC50 [4]: 5.54 | Ratio IC50 [5]: 220 | pIC50 [6]: 7.66 | Ratio IC50 [7]: 1.7

COc1cc2c(cc1OC)C(c1cc(OC)c(OC)c(OC)c1)CCC2 (racemic)
pIC50 [1]: 5.17 | Activity (A549): Non-Toxic

COc1cc2c(cc1OC)N(c1cc(OC)c(OC)c(OC)c1)CCC2
pIC50 [1]: 5.30 | Activity (A549): Non-Toxic

COc1cc2c(cc1OC)N(c1cc(OC)c(OC)c(OC)c1)C(=O)CC2
pIC50 [1]: < 5.00 | Activity (A549): Non-Toxic

COc1ccc([C@H]2c3cc(OC)c(OC)cc3C[C@H](C)[C@@H]2C)cc1OC
pIC50 [8]: 5.97 | pIC50 [1]: 6.07 | Activity (A549): Non-Toxic | pIC50 [2]: 5.86 | Ratio IC50 [3]: 1.6 | pIC50 [4]: < 5.00 | Ratio IC50 [5]: >11.6 | pIC50 [6]: 5.40 | Ratio IC50 [7]: 4.7

COc1cc2c(cc1OC)[C@@H](c1cc(OC)c(OC)c(OC)c1)[C@H](C)[C@@H](C)C2
pIC50 [1]: < 5.00 | Activity (A549): Non-Toxic

COc1cc2c(cc1OC)N(c1cc(OC)c(OC)c(OC)c1)C(C)CC2 (racemic)
pIC50 [1]: 6.03 | Activity (A549): Non-Toxic | pIC50 [2]: 5.85 | Ratio IC50 [3]: 1.5 | pIC50 [4]: < 5.00 | Ratio IC50 [5]: >10.6 | pIC50 [6]: 5.07 | Ratio IC50 [7]: 9.1

COc1ccc(/C(=N/O)c2cc(OC)c(OC)c(OC)c2)cc1OC
pIC50 [1]: < 5.00 | Activity (A549): Non-Toxic

CCCC1CCc2cc(OC)c(OC)cc2N1c1cc(OC)c(OC)c(OC)c1 (racemic)
pIC50 [1]: 5.89 | Activity (A549): Non-Toxic

COc1ccc(C(=O)c2cc(OC)c(OC)c(OC)c2)cc1OC
pIC50 [1]: < 5.00 | Activity (A549): Non-Toxic

COc1cc2c(cc1OC)[C@@H](c1ccc3c(c1)OCO3)[C@H](C)[C@@H](C)C2
pIC50 [1]: < 5.00 | Activity (A549): Non-Toxic

COc1cc2c(cc1OC)[C@H](c1cc(OC)c(OC)c(OC)c1)[C@@H](C)C2
pIC50 [1]: 6.47 | Activity (A549): Non-Toxic

Nc1ccn([C@@H]2CS[C@H](CO)O2)c(=O)n1 [LAMIVUDINE]
pIC50 [1]: 6.29 | pIC50 [6]: < 5.00 | Ratio IC50 [7]: >19.6

COc1cc(CCC(=O)N2C(=O)OC[C@@H]2Cc2ccccc2)cc(OC)c1OC
pIC50 [1]: < 5.00 | Activity (A549): Non-Toxic

COc1cc2c(cc1OC)[C@@H](c1cc(OC)c(OC)c(OC)c1)[C@H](C)CC2
pIC50 [1]: 5.99 | Activity (A549): Non-Toxic | pIC50 [2]: 5.76 | Ratio IC50 [3]: 1.7 | pIC50 [4]: < 5.00 | Ratio IC50 [5]: >9.8 | pIC50 [6]: 5.15 | Ratio IC50 [7]: 7

COc1cc2c(cc1OC)[C@H](c1cc(OC)c(OC)c(OC)c1)[C@@H](C)[C@@H](C)C2
pIC50 [1]: 6.80 | Activity (A549): Non-Toxic | pIC50 [2]: 6.74 | Ratio IC50 [3]: 1.1 | pIC50 [4]: 4.97 | Ratio IC50 [5]: 67.5 | pIC50 [6]: 5.86 | Ratio IC50 [7]: 8.6

COc1cc2c(cc1OC)[C@H](c1cc(OC)c(OC)c(OC)c1)[C@@H](C)CC2
pIC50 [1]: 7.05 | Activity (A549): Non-Toxic | pIC50 [2]: 6.82 | Ratio IC50 [3]: 1.7 | pIC50 [4]: < 5.00 | Ratio IC50 [5]: >111 | pIC50 [6]: 6.74 | Ratio IC50 [7]: 2

COc1ccc([C@@H]2c3cc(OC)c(OC)cc3C[C@H](C)[C@H]2C)cc1OC
pIC50 [1]: < 5.00 | Activity (A549): Non-Toxic

CCC1CCc2cc(OC)c(OC)cc2N1c1cc(OC)c(OC)c(OC)c1 (racemic)
pIC50 [1]: 6.14 | Activity (A549): Non-Toxic

COc1ccc([C@H]2c3cc(OC)c(OC)cc3C[C@@H]2C)cc1OC
pIC50 [1]: 5.35 | Activity (A549): Non-Toxic

CO/N=C(\c1ccc(OC)c(OC)c1)c1cc(OC)c(OC)c(OC)c1
pIC50 [1]: < 5.00 | Activity (A549): Non-Toxic
